What was measured:
Rat = assay: Acute toxicity study in rat; assay type: in vivo; settings: intravenously, 100 mg/kg
[1] = test system: Human saphenous vein vascular smooth muscle cells; assay: Vascular smooth muscle cell apoptosis at migrating wound edge, in situ end labeling; assay type: cell-based; settings: 1 mg/mL, 24 hours after wounding, n=4, p<0.05
Experimental: Human saphenous vein vascular smooth muscle cells were explanted from surplus segments of vein from patients undergoing coronary artery bypass surgery. Cells were maintained in Dulbecco's modified essential medium supplemented with […], 2 mmol/L L-glutamine and 10% fetal calf serum and were grown to confluence on glass coverslips. The cell layer was then subjected to scrape-wounding by drawing a fine cell scraper across the coverslip. Proliferation of the vascular smooth muscle cells was inhibited by addition of 2 mM hydroxyurea to the culture media. Vascular smooth muscle cells that are treated in this manner respond to the wounding of the confluent monolayer by migrating into the wound (Hammerle et al (1991) Vasa 20, 207-215). The percentage of apoptotic cells in the migrating edge (outermost 100 μm from the wound) was assessed by in situ end labeling at 24 hours after wounding (as in George et al (2001) Gene Therapy 8 668-676).

[2] = test system: Human saphenous vein vascular smooth muscle cells; assay: Vascular smooth muscle cell migration after scrape-wounding; assay type: cell-based; settings: 1 mg/mL, 24 hours after wounding
Experimental: An illustrative assay for evaluating the modulating of vascular smooth muscle cell migration may be performed as follows (as described in Example 23). Human saphenous vein vascular smooth muscle cells are explanted from surplus segments of vein from patients undergoing coronary artery bypass surgery. Cells are maintained in Dulbecco's modified essential medium supplemented with penicillin, streptomycin, L-glutamine and 10% fetal calf serum and are grown to confluence on glass coverslips in the presence or absence of collagen type I. The cell layer is then subjected to scrape-wounding by drawing a fine cell scraper across the coverslip. Proliferation of the vascular smooth muscle cells is inhibited by addition of 2 mM hydroxyurea to the culture media. […] The migratory capacity of the vascular smooth muscle cells is assessed by measuring the distance of migration into the wound area (outermost 100 μm from the wound) using image analysis software at 24 hours after wounding.
Human saphenous vein vascular smooth muscle cells were explanted from surplus segments of vein from patients undergoing coronary artery bypass surgery. […] The migratory capacity of the vascular smooth muscle cells was assessed by measuring the distance of migration into the wound area (outermost 100 μm from the wound) using image analysis software at 24 hours after wounding.

[3] = test system: Madin Darby canine kidney (MDCK) cells; assay type: cell-based; settings: 18 h
L1 = L1 (Homo sapiens, UniProt P32004); assay: Neurite outgrowth on L1 expressing 3T3 monolayers (Example 2); assay type: cell-based, mouse; design: expressed in transfected cells; host or cells: 3T3 fibroblasts (monolayer); mouse post-natal day 3 cerebellar neurons on top; settings: 500 μg/mL
[4] = test system: Human saphenous vein vascular smooth muscle cells; assay: Vascular smooth muscle cell apoptosis and death in aggregates (agarose-coated wells); assay type: cell-based; settings: 0.5 mg/mL
Experimental: Human saphenous vein vascular smooth muscle cells were explanted from surplus segments of vein from patients undergoing coronary artery bypass surgery. Cells were maintained in Dulbecco's modified essential medium supplemented with […], 2 mmol/L L-glutamine and 10% fetal calf serum and were grown in agarose-coated wells. Under these conditions the cells are unable to attach to the underlying substratum and adhere to one another by cell-cell contacts only, forming aggregates. The percentage of dead cells was assessed by staining with Trypan blue or by fixing the cells and staining with Hoescht (H-33342). Trypan blue stain is absorbed only by non-viable cells when the integrity of the cell membrane is breached (Freshney, R. (1987) Culture of Animal Cells: A Manual of Basic Technique, p. 117, Alan R. Liss, Inc., New York) whereas Hoescht stain enters living cells (Shapiro (1981) Cytometry 2, 143-150).

mice = assay: Acute toxicity study in mice; assay type: in vivo, mouse
Experimental: Mice were injected intraperitoneally for seven consecutive days with 20 mg/kg of N—Ac-CHAVC-NH2 (SEQ ID NO:10) and sacrificed 24 hr after treatment.
Mice were injected intraperitoneally with 125 mg/kg of N—Ac-CHAVC-NH2 (SEQ ID NO:10) for three consecutive days and sacrificed on the fourth day.
Mice were injected intravenously with either a saline control or 200 mg/kg of N—Ac-CHAVC-NH2 (SEQ ID NO:10). Mice were sacrificed after 24 hours, or allowed a 14-day recovery period.

N-CAM = molecular target: T1, N-CAM (Homo sapiens, UniProt P13591); assay: Neurite outgrowth on N-CAM expressing 3T3 monolayers (Example 2); assay type: cell-based, mouse; settings: 500 μg/mL
T1 construct: expressed in transfected cells; host or cells: 3T3 fibroblasts (monolayer); mouse post-natal day 3 cerebellar neurons on top

[5] = test system: 3T3 cells not expressing N-cadherin, N-CAM, or L1 (control cells); assay: Neurite outgrowth on control 3T3 monolayers (Example 2); assay type: cell-based, mouse; settings: 500 μg/ml
Experimental: Neurons were cultured on monolayers of 3T3 cells transfected with cDNA encoding N-cadherin essentially as described by Doherty and Walsh, Curr. Op. Neurobiol. 4:49-55, 1994; Williams et al., Neuron 13:583-594, 1994; Hall et al., Cell Adhesion and Commun. 3:441-450, 1996; Doherty and Walsh, Mol. Cell. Neurosci. 8:99-111, 1994; Safell et al., Neuron 18:231-242, 1997. Briefly, monolayers of control 3T3 fibroblasts and 3T3 fibroblasts that express N-cadherin were established by overnight culture of 80,000 cells in individual wells of an 8-chamber well tissue culture slide. 3000 cerebellar neurons isolated from post-natal day 3 mouse brains were cultured for 18 hours on the various monolayers in control media (SATO/2%FCS), or media supplemented with various concentrations of the cyclic peptide N—Ac-CHAVC-NH2 (SEQ ID NO:10) or a control peptide without the HAV sequence (N—Ac-CHGVC-NH2; SEQ ID NO:11). The cultures were then fixed and stained for GAP43, which specifically binds to the neurons and their neurites. The length of the longest neurite on each GAP43 positive neuron was then measured by computer assisted morphometry.

T1 sequence (P13591 20-858, species assumed): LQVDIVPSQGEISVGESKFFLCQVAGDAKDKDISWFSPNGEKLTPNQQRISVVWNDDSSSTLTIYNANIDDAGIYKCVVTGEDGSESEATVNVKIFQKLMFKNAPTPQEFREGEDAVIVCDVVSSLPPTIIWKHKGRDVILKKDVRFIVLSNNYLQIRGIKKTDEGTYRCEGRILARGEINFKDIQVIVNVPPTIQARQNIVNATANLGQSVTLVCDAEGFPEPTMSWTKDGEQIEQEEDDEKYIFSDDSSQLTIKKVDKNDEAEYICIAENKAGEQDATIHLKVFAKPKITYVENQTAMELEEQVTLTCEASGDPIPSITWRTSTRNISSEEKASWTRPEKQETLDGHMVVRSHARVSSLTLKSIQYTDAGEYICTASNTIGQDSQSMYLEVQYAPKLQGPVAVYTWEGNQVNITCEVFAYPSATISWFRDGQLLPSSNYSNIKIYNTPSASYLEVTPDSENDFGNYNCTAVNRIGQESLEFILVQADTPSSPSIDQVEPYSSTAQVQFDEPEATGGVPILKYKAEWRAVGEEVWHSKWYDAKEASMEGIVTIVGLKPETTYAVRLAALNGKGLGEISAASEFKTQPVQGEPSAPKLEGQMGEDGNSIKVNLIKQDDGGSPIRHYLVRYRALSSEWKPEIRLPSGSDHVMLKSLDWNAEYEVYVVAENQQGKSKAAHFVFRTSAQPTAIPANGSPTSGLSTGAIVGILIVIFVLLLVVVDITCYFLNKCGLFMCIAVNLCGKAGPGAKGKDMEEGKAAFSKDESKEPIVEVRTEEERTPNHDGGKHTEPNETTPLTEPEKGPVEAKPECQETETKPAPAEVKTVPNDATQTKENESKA
L1, sequence (P32004 20-1257): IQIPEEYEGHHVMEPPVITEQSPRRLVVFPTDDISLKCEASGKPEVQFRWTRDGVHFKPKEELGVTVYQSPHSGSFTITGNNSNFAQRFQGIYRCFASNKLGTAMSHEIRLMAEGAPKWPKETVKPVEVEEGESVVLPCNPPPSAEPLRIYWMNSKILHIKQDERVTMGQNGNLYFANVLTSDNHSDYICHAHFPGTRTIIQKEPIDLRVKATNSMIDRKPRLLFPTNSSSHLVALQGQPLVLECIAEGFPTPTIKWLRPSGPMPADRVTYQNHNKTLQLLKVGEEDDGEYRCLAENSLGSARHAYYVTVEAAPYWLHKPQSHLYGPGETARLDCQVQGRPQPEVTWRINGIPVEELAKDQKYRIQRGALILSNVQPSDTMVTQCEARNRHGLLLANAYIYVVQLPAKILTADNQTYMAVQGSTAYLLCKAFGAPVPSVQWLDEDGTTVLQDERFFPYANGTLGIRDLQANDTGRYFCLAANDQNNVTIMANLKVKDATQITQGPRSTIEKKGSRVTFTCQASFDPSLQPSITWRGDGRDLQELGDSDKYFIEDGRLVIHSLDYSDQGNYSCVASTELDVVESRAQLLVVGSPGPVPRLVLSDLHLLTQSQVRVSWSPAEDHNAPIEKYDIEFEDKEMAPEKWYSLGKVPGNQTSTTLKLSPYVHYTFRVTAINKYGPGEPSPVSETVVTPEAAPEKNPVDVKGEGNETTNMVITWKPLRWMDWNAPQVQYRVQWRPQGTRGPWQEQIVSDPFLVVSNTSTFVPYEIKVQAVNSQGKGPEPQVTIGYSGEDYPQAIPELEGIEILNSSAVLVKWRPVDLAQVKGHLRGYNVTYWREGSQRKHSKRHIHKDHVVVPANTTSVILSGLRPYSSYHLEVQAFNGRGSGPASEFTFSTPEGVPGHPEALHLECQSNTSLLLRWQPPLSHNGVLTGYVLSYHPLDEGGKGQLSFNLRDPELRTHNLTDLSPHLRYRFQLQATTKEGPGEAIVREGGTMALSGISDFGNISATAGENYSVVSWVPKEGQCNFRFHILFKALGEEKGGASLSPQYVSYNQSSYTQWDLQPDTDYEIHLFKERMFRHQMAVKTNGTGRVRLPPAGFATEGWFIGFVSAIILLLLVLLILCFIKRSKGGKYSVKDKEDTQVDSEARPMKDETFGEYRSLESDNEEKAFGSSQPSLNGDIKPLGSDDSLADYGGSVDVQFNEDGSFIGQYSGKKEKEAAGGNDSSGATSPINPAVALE

For CC(=O)N[C@H]1CSSC[C@@H](C(N)=O)NC(=O)[C@H](C(C)C)NC(=O)[C@H](C)NC(=O)[C@H](Cc2c[nH]cn2)NC1=O [N—Ac—CHAVC—NH2, N-Ac-Cys-His-Ala-Val-Cys-NH2], the “gross or histopathological findings” value (Rat) was “no gross or histopathological findings related to the treatment”, the “increase in apoptosis at wound edge” value [1] was 3±1 fold and the “reduction of vascular smooth muscle cell migration” value ([2]; collagen) was 56±5%. The “reduction of vascular smooth muscle cell migration” value ([2]; glass) was 53±8%, the EC50 [3] was 270 µM and the “inhibition of neurite outgrowth on 3T3 cells expressing L1” value (L1) was “did not inhibit neurite outgrowth”. The “aggregation of vascular smooth muscle cells” value [4] was “inhibits aggregation”, the “increase in apoptosis and cell death in aggregates” value ([4]; 24 hr, n=4, p<0.05) was 2 fold and the “gross or histopathological findings” value (mice; intraperitoneally, 125 mg/kg, three consecutive days, sacrificed on the fourth day) was “No gross or histopathological findings related to the treatment were found”. The “gross or histopathological findings” value (mice; intraperitoneally, seven consecutive days, 20 mg/kg, sacrificed 24 hr after treatment) was “No gross or histopathological findings related to the treatment were found”, the mortality (mice; intravenously, 200 mg/kg) was “no animals died during the study” and the “gross or histopathological findings” value (mice; intravenously, 200 mg/kg, sacrificed after 24 hours or 14-day recovery) was “no gross or histopathological findings related to the treatment were found”. The “inhibition of neurite outgrowth on 3T3 cells expressing N-CAM” value (N-CAM) was “did not inhibit neurite outgrowth” and the “inhibition of neurite outgrowth on control 3T3 cells” value [5] was “did not inhibit neurite outgrowth”.
